Laboratory results: ChEMBL document CHEMBL3885881, “DrugMatrix”

Organism: Rattus norvegicus
Test: DrugMatrix - Regimen: Daily Repeat
Format: toxicity, organism-based, Sprague-Dawley
Set-up: regimen Daily Repeat, gender Male, age 6-8 weeks
Conditions: in vivo, po, route oral GAVAGE, […]; for ABSOLUTE BASOPHIL / ABSOLUTE EOSINOPHIL / ABSOLUTE LYMPHOCYTE / ABSOLUTE MONOCYTE / ABSOLUTE SEGMENTED NEUTROPHIL / BASOPHIL / EOSINOPHIL / ERYTHROCYTE COUNT / HEMATOCRIT / HEMOGLOBIN / LEUKOCYTE COUNT / LYMPHOCYTE / MEAN CORPUSCULAR HEMOGLOBIN / MEAN CORPUSCULAR HEMOGLOBIN CONCENTRATION / MEAN CORPUSCULAR VOLUME / MONOCYTE / NEUTROPHIL / NUCLEATED RED BLOOD CELLS / PLATELET COUNT: tissue Blood; for ALANINE AMINOTRANSFERASE / ALBUMIN / ALKALINE PHOSPHATASE / ASPARTATE AMINOTRANSFERASE / BLOOD UREA NITROGEN / CARBON DIOXIDE / CHLORIDE / CHOLESTEROL / CREATINE PHOSPHOKINASE / CREATININE / GLUCOSE / LACTATE DEHYDROGENASE / LIPASE / PHOSPHORUS / POTASSIUM / SODIUM / TOTAL BILIRUBIN / TOTAL PROTEIN / URIC ACID: tissue Plasma
[1] = 0.6 mg/kg, 120 h, dose level Low, time 5 day
[2] = 4.5 mg/kg, 72 h, dose level High, time 3 day
[3] = 4.5 mg/kg, 120 h, dose level High, time 5 day

O=C(O)CCCc1ccc(N(CCCl)CCCl)cc1 [CHLORAMBUCIL]
ABSOLUTE BASOPHIL [1]: 0 CELLS/uL | ABSOLUTE EOSINOPHIL [1]: 245.67 CELLS/uL | ABSOLUTE LYMPHOCYTE [1]: 10916 CELLS/uL | ABSOLUTE MONOCYTE [1]: 468.33 CELLS/uL | ABSOLUTE SEGMENTED NEUTROPHIL [1]: 1403.33 CELLS/uL | BASOPHIL [1]: 0% | EOSINOPHIL [1]: 1.67% | ERYTHROCYTE COUNT [1]: 5.48 x10E6/uL | HEMATOCRIT [1]: 34.97% | HEMOGLOBIN [1]: 13.77 G/DL | LEUKOCYTE COUNT [1]: 13.03 x10E3/uL | LYMPHOCYTE [1]: 84.33% | MEAN CORPUSCULAR HEMOGLOBIN [1]: 25.13 pg | MEAN CORPUSCULAR HEMOGLOBIN CONCENTRATION [1]: 39.37 G/DL | MEAN CORPUSCULAR VOLUME [1]: 63.77 fL | MONOCYTE [1]: 3.67% | NEUTROPHIL [1]: 10.33% | NUCLEATED RED BLOOD CELLS [1]: 0 /100WBC | PLATELET COUNT [1]: 1176 x10E3/uL | ALANINE AMINOTRANSFERASE [1]: 57.33 u/L | ALBUMIN [1]: 4.03 G/DL | ALKALINE PHOSPHATASE [1]: 437.67 u/L | ASPARTATE AMINOTRANSFERASE [1]: 74.67 u/L | BLOOD UREA NITROGEN [1]: 12 mg/dL | CARBON DIOXIDE [1]: 24.33 mmol/L | CHLORIDE [1]: 100.67 MEQ/L | CHOLESTEROL [1]: 76.67 mg/dL | CREATINE PHOSPHOKINASE [1]: 301 u/L | CREATININE [1]: 0.16 mg/dL | GLUCOSE [1]: 184.33 mg/dL | LACTATE DEHYDROGENASE [1]: 187.33 u/L | LIPASE [1]: 7 u/L | PHOSPHORUS [1]: 10.63 mg/dL | POTASSIUM [1]: 6.13 MEQ/L | SODIUM [1]: 139.57 MEQ/L | TOTAL BILIRUBIN [1]: 0.13 mg/dL | TOTAL PROTEIN [1]: 5.83 G/DL | URIC ACID [1]: 1.33 mg/dL | ABSOLUTE BASOPHIL [2]: 0 CELLS/uL | ABSOLUTE EOSINOPHIL [2]: 76.67 CELLS/uL | ABSOLUTE LYMPHOCYTE [2]: 5496.33 CELLS/uL | ABSOLUTE MONOCYTE [2]: 177.33 CELLS/uL | ABSOLUTE SEGMENTED NEUTROPHIL [2]: 816.33 CELLS/uL | BASOPHIL [2]: 0% | EOSINOPHIL [2]: 1.33% | ERYTHROCYTE COUNT [2]: 5.43 x10E6/uL | HEMATOCRIT [2]: 34.5% | HEMOGLOBIN [2]: 13.73 G/DL | LEUKOCYTE COUNT [2]: 6.57 x10E3/uL | LYMPHOCYTE [2]: 84.33% | MEAN CORPUSCULAR HEMOGLOBIN [2]: 25.33 pg | MEAN CORPUSCULAR HEMOGLOBIN CONCENTRATION [2]: 39.77 G/DL | MEAN CORPUSCULAR VOLUME [2]: 63.67 fL | MONOCYTE [2]: 2.67% | NEUTROPHIL [2]: 11.67% | NUCLEATED RED BLOOD CELLS [2]: 0 /100WBC | PLATELET COUNT [2]: 1208.33 x10E3/uL | ALANINE AMINOTRANSFERASE [2]: 50 u/L | ALBUMIN [2]: 4.1 G/DL | ALKALINE PHOSPHATASE [2]: 336 u/L | ASPARTATE AMINOTRANSFERASE [2]: 69 u/L | BLOOD UREA NITROGEN [2]: 13 mg/dL | CARBON DIOXIDE [2]: 25.33 mmol/L | CHLORIDE [2]: 100.33 MEQ/L | CHOLESTEROL [2]: 70.67 mg/dL | CREATINE PHOSPHOKINASE [2]: 260.33 u/L | CREATININE [2]: 0.34 mg/dL | GLUCOSE [2]: 191.33 mg/dL | LACTATE DEHYDROGENASE [2]: 111 u/L | LIPASE [2]: 9 u/L | PHOSPHORUS [2]: 12.53 mg/dL | POTASSIUM [2]: 6.51 MEQ/L | SODIUM [2]: 140.03 MEQ/L | TOTAL BILIRUBIN [2]: 0.1 mg/dL | TOTAL PROTEIN [2]: 5.57 G/DL | URIC ACID [2]: 2.1 mg/dL | ABSOLUTE BASOPHIL [3]: 0 CELLS/uL | ABSOLUTE EOSINOPHIL [3]: 0 CELLS/uL | ABSOLUTE LYMPHOCYTE [3]: 1406 CELLS/uL | ABSOLUTE MONOCYTE [3]: 62.67 CELLS/uL | ABSOLUTE SEGMENTED NEUTROPHIL [3]: 98 CELLS/uL | BASOPHIL [3]: 0% | EOSINOPHIL [3]: 0% | ERYTHROCYTE COUNT [3]: 5.5 x10E6/uL | HEMATOCRIT [3]: 34.17% | HEMOGLOBIN [3]: 13.53 G/DL | LEUKOCYTE COUNT [3]: 1.57 x10E3/uL | LYMPHOCYTE [3]: 90% | MEAN CORPUSCULAR HEMOGLOBIN [3]: 24.63 pg | MEAN CORPUSCULAR HEMOGLOBIN CONCENTRATION [3]: 39.63 G/DL | MEAN CORPUSCULAR VOLUME [3]: 62.13 fL | MONOCYTE [3]: 4% | NEUTROPHIL [3]: 6% | NUCLEATED RED BLOOD CELLS [3]: 0 /100WBC | PLATELET COUNT [3]: 1169.33 x10E3/uL | ALANINE AMINOTRANSFERASE [3]: 45 u/L | ALBUMIN [3]: 3.97 G/DL | ALKALINE PHOSPHATASE [3]: 263.67 u/L | ASPARTATE AMINOTRANSFERASE [3]: 75.33 u/L | BLOOD UREA NITROGEN [3]: 13 mg/dL | CARBON DIOXIDE [3]: 24.33 mmol/L | CHLORIDE [3]: 101 MEQ/L | CHOLESTEROL [3]: 70.67 mg/dL | CREATINE PHOSPHOKINASE [3]: 644 u/L | CREATININE [3]: 0.13 mg/dL | GLUCOSE [3]: 157 mg/dL | LACTATE DEHYDROGENASE [3]: 154 u/L | LIPASE [3]: 7.33 u/L | PHOSPHORUS [3]: 9.53 mg/dL | POTASSIUM [3]: 6.16 MEQ/L | SODIUM [3]: 140.2 MEQ/L | TOTAL BILIRUBIN [3]: 0.2 mg/dL | TOTAL PROTEIN [3]: 5.73 G/DL | URIC ACID [3]: 1.3 mg/dL
